Measurements: PMC4490784, “Compensatory induction of MYC expression by sustained CDK9 inhibition via a BRD4-dependent mechanism” (eLife, 2015)

Columns and labels:
Experiment in all cases: KINOMEscan binding assay
[1] = target: T1, RET(V804M) (Homo sapiens, UniProt P07949, V804M); settings: read-out: % Retention on Solid Support
T1 construct: purchased DiscoveRx KINOMEscan
Summary of the method: (§1)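 i-CDK9 at 1 and 10 µM; competition binding against an immobilized active-site probe; >400-kinase panel.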

[2] = target: T2, PAK7 (Homo sapiens, UniProt Q9P286); settings: read-out: % Retention on Solid Support
T2 construct: purchased DiscoveRx KINOMEscan
Summary of the method: as §1

[3] = target: T3, CSNK1G2 (Homo sapiens, UniProt P78368)
T3 construct: purchased DiscoveRx KINOMEscan
Summary of the method: as §1

[4] = target: T4, CDC2L1 (Homo sapiens, UniProt P21127); settings: read-out: % Retention on Solid Support
T4 construct: purchased DiscoveRx KINOMEscan
Summary of the method: as §1

[5] = target: T5, MST1R (Homo sapiens, UniProt Q04912); settings: read-out: % Retention on Solid Support
T5 construct: purchased DiscoveRx KINOMEscan
Summary of the method: as §1

[6] = target: T6, IKK-alpha (Homo sapiens, UniProt O15111); settings: read-out: % Retention on Solid Support
T6 construct: purchased DiscoveRx KINOMEscan
Summary of the method: as §1

[7] = target: T7, HPK1 (Homo sapiens, UniProt Q92918); settings: read-out: % Retention on Solid Support
T7 construct: purchased DiscoveRx KINOMEscan
Summary of the method: as §1

[8] = target: T8, ERBB4 (Homo sapiens, UniProt Q15303); settings: read-out: % Retention on Solid Support
T8 construct: purchased DiscoveRx KINOMEscan
Summary of the method: as §1

[9] = target: T9, PIK3CA(I800L) (Homo sapiens, UniProt P42336, I800L); settings: 1 µM i-CDK9; read-out: % Retention on Solid Support
T9 construct: purchased DiscoveRx KINOMEscan
Summary of the method: as §1

[10] = target: T10, EGFR(E746-A750del) (Homo sapiens, UniProt P00533, DEL746-750)
T10 construct: purchased DiscoveRx KINOMEscan
Summary of the method: as §1

[11] = target: T11, MEK6 (Homo sapiens, UniProt P52564); settings: read-out: % Retention on Solid Support
T11 construct: purchased DiscoveRx KINOMEscan
Summary of the method: as §1

[12] = target: T12, SIK2 (Homo sapiens, UniProt Q9H0K1); settings: read-out: % Retention on Solid Support
T12 construct: purchased DiscoveRx KINOMEscan
Summary of the method: as §1

[13] = target: T13, ZAK (Homo sapiens, UniProt Q9NYL2); settings: read-out: % Retention on Solid Support
T13 construct: purchased DiscoveRx KINOMEscan
Summary of the method: as §1

[14] = target: T14, NEK2 (Homo sapiens, UniProt P51955); settings: read-out: % Retention on Solid Support
T14 construct: purchased DiscoveRx KINOMEscan
Summary of the method: as §1

[15] = target: T15, MEK3 (Homo sapiens, UniProt P46734); settings: read-out: % Retention on Solid Support
T15 construct: purchased DiscoveRx KINOMEscan
Summary of the method: as §1

[16] = target: T16, ICK (Homo sapiens, UniProt Q9UPZ9); settings: read-out: % Retention on Solid Support
T16 construct: purchased DiscoveRx KINOMEscan
Summary of the method: as §1

[17] = target: T17, KIT(D816H) (Homo sapiens, UniProt P10721, D816H); settings: 1 µM i-CDK9; read-out: % Retention on Solid Support
T17 construct: purchased DiscoveRx KINOMEscan
Summary of the method: as §1

[18] = target: T18, CASK (Homo sapiens, UniProt O14936); settings: 1 µM i-CDK9; read-out: % Retention on Solid Support
T18 construct: purchased DiscoveRx KINOMEscan
Summary of the method: as §1

[19] = target: T19, MINK (Homo sapiens, UniProt Q8N4C8); settings: read-out: % Retention on Solid Support
T19 construct: purchased DiscoveRx KINOMEscan
Summary of the method: as §1

[20] = target: T20, CLK2 (Homo sapiens, UniProt P49760); settings: read-out: % Retention on Solid Support
T20 construct: purchased DiscoveRx KINOMEscan
Summary of the method: as §1

T12 sequence (Q9H0K1 whole entry): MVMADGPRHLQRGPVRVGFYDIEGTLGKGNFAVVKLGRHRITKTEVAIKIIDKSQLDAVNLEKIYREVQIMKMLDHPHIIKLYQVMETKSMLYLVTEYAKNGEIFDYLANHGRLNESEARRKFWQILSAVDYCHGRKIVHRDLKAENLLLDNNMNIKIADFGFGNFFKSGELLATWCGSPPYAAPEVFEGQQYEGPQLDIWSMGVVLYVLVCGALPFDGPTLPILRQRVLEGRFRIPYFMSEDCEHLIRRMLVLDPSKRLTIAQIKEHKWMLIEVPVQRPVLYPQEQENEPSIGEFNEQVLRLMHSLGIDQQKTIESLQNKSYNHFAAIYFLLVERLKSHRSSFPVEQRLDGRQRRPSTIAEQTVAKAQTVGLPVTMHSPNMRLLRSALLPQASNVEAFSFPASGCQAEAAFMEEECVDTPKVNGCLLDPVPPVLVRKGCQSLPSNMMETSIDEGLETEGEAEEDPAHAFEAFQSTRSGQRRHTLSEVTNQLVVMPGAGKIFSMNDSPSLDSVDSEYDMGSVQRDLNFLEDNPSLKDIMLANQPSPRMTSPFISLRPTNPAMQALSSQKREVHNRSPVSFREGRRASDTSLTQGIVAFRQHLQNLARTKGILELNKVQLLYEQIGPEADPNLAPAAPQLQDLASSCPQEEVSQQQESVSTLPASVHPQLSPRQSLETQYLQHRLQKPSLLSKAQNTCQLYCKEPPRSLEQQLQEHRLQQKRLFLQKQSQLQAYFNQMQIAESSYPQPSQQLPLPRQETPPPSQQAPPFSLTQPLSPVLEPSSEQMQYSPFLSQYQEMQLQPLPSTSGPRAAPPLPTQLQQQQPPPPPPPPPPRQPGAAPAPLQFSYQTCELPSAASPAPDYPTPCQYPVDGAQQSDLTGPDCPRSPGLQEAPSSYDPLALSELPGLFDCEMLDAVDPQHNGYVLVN
T14 sequence (P51955 whole entry): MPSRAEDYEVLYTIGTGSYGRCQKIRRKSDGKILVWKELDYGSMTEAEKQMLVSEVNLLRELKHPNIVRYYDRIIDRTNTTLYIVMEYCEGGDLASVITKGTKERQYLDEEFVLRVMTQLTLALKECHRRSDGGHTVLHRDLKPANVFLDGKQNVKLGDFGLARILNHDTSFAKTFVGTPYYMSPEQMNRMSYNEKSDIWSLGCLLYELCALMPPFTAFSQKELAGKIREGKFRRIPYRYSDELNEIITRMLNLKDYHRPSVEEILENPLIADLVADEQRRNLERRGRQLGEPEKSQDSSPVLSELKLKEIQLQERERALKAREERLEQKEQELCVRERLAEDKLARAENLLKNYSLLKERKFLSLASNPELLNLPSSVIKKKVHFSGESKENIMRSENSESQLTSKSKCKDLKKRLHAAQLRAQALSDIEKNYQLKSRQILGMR
T11 sequence (P52564 whole entry): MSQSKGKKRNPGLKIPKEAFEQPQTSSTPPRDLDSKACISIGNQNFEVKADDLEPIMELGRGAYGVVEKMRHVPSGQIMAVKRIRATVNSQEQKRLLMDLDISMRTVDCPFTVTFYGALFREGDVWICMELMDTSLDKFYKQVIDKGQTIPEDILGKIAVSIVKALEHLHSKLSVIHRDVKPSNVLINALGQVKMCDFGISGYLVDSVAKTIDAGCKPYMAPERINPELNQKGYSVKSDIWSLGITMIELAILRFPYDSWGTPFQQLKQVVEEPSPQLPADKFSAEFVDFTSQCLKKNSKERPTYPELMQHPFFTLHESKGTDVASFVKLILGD
T7 sequence (Q92918 whole entry): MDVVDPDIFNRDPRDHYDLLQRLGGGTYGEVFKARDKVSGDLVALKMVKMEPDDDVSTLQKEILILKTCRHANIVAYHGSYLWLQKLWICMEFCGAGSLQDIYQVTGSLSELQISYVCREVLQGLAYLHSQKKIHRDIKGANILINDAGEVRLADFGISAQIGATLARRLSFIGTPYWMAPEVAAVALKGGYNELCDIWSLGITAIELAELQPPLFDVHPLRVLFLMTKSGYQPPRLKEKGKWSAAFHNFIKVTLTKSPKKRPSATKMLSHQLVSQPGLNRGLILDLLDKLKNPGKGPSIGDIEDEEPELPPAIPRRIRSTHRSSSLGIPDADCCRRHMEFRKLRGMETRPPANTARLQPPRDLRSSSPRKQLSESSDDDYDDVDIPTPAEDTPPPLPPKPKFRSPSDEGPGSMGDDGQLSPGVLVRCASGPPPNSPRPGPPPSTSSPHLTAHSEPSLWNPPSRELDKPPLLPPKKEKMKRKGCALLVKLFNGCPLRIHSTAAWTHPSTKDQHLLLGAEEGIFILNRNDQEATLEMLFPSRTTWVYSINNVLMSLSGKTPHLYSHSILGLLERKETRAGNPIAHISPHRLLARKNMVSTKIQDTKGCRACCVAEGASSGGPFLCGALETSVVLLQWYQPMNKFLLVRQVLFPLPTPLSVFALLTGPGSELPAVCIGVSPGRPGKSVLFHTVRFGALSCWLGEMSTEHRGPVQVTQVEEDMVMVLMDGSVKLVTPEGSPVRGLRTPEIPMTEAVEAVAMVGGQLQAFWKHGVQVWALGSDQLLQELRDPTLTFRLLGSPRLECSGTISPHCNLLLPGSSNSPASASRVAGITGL
T20 sequence (P49760 whole entry): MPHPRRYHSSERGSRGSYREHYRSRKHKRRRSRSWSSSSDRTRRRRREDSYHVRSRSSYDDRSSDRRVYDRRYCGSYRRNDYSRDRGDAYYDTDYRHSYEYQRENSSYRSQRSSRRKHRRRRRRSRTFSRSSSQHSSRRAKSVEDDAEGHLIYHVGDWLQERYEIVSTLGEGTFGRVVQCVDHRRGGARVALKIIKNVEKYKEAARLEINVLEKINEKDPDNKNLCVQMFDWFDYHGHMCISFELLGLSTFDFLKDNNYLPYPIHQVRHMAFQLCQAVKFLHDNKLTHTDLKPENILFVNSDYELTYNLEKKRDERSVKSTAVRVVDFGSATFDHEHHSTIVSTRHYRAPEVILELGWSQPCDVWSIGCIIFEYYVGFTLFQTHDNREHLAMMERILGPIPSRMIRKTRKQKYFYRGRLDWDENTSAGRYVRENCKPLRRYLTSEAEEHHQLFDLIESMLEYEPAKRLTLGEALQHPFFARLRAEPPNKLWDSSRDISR
T8 sequence (Q15303 26-1308): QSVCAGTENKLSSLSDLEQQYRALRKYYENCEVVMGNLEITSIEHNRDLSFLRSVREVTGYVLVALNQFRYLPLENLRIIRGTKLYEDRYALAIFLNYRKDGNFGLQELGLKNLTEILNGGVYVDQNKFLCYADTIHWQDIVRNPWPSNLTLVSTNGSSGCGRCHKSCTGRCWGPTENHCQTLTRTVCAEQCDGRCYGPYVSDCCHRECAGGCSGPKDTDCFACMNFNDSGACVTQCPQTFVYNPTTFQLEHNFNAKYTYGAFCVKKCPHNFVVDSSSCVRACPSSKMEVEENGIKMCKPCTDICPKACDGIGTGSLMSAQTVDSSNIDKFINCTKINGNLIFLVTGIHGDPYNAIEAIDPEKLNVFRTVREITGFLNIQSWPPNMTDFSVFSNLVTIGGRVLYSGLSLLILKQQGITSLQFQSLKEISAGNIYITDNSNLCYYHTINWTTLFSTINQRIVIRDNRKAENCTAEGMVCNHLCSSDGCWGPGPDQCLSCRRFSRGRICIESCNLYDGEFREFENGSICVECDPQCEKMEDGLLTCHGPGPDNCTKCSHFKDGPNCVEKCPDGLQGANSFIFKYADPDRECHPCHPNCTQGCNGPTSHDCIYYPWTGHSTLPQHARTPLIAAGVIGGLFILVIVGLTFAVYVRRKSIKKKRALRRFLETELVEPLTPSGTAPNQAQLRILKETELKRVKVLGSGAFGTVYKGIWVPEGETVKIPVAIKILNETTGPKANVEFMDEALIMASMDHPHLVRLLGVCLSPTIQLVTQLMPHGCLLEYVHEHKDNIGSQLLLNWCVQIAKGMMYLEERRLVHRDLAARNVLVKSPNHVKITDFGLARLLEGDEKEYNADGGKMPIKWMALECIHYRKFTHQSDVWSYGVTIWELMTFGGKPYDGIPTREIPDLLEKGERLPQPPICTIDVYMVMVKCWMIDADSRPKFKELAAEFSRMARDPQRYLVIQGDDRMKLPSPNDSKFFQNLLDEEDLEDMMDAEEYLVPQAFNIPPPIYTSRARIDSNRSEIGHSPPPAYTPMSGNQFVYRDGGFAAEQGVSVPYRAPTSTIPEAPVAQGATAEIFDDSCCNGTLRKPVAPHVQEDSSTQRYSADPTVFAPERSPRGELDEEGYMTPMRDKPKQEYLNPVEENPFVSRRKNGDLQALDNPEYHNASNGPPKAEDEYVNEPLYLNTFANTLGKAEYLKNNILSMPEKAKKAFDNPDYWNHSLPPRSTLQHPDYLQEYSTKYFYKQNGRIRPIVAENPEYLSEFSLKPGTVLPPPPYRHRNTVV
T2 sequence (Q9P286 whole entry): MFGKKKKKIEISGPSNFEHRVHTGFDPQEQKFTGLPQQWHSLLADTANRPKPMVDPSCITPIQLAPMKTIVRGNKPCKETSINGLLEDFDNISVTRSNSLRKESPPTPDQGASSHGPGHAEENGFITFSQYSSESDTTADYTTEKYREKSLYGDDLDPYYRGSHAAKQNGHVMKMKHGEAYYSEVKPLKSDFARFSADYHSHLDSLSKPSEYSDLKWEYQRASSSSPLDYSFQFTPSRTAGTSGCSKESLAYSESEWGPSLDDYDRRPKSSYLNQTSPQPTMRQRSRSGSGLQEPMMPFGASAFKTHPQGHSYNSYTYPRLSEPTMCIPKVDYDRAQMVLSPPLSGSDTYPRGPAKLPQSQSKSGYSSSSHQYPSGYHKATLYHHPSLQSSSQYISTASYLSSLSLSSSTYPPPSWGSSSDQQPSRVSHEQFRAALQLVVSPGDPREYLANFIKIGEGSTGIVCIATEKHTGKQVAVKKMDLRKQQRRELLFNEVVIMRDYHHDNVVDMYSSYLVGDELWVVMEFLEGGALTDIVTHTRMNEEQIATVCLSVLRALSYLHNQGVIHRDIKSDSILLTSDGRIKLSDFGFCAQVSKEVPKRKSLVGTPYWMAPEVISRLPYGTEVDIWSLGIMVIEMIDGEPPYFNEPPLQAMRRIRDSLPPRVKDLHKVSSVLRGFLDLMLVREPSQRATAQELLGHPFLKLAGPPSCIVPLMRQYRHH

N[C@H]1CC[C@H](Nc2cc(-c3cccc(NCc4cccc(F)c4)n3)c(Cl)cn2)CC1 [i-CDK9, N2′-(trans-4-aminocyclohexyl)-5′-chloro-N6-(3-fluorobenzyl)-2,4′-bipyridine-2′,6-diamine]
remaining binding at 1 µM ([1]; 1 µM i-CDK9): 74%
remaining binding at 10 µM ([1]; 10 µM i-CDK9): 74%
remaining binding at 1 µM ([2]; 1 µM i-CDK9): 75%
remaining binding at 10 µM ([2]; 10 µM i-CDK9): 81%
% Retention on Solid Support ([3]; 1 µM i-CDK9): 100%
% Retention on Solid Support ([3]; 10 µM i-CDK9): 66%
remaining binding at 1 µM ([4]; 1 µM i-CDK9): 92%
remaining binding at 10 µM ([4]; 10 µM i-CDK9): 36%
remaining binding at 1 µM ([5]; 1 µM i-CDK9): 100%
remaining binding at 10 µM ([5]; 10 µM i-CDK9): 100%
remaining binding at 1 µM ([6]; 1 µM i-CDK9): 85%
remaining binding at 10 µM ([6]; 10 µM i-CDK9): 71%
remaining binding at 1 µM ([7]; 1 µM i-CDK9): 86%
remaining binding at 10 µM ([7]; 10 µM i-CDK9): 100%
remaining binding at 1 µM ([8]; 1 µM i-CDK9): 100%
remaining binding at 10 µM ([8]; 10 µM i-CDK9): 100%
remaining binding at 1 µM [9]: 100%
% Retention on Solid Support ([10]; 1 µM i-CDK9): 0%
% Retention on Solid Support ([10]; 10 µM i-CDK9): 78%
remaining binding at 1 µM ([11]; 1 µM i-CDK9): 96%
remaining binding at 10 µM ([11]; 10 µM i-CDK9): 100%
remaining binding at 1 µM ([12]; 1 µM i-CDK9): 90%
remaining binding at 10 µM ([12]; 10 µM i-CDK9): 64%
remaining binding at 1 µM ([13]; 1 µM i-CDK9): 100%
remaining binding at 10 µM ([13]; 10 µM i-CDK9): 93%
remaining binding at 1 µM ([14]; 1 µM i-CDK9): 77%
remaining binding at 10 µM ([14]; 10 µM i-CDK9): 100%
remaining binding at 1 µM ([15]; 1 µM i-CDK9): 99%
remaining binding at 10 µM ([15]; 10 µM i-CDK9): 85%
remaining binding at 1 µM ([16]; 1 µM i-CDK9): 85%
remaining binding at 10 µM ([16]; 10 µM i-CDK9): 3%
remaining binding at 1 µM [17]: 100%
remaining binding at 1 µM [18]: 100%
remaining binding at 1 µM ([19]; 1 µM i-CDK9): 100%
remaining binding at 10 µM ([19]; 10 µM i-CDK9): 65%
remaining binding at 1 µM ([20]; 1 µM i-CDK9): 61%
remaining binding at 10 µM ([20]; 10 µM i-CDK9): 26%
